Measured values as given in US7820623B2 (priority 2006, dated 2010).
Bridge positions count the residues as written; N and C are the ends. Square brackets hold non-standard residues; d marks the D form. Peptide text beside a SMILES is read from it. 1Nal = N[C@@H](Cc1cccc2ccccc12)C(=O)O

What was measured:
[1] = tested on: thapsigargin-induced IFN-g production in human whole blood; format: cell-based; conditions: read-out: Analogue Activity (IC50) WB/IFNg
[2] = tested on: thapsigargin-induced IL-2 production in human whole blood; conditions: read-out: Analogue Activity (IC50) WB/IL-2

| SMILES | IC50 [1] | IC50 [2] |
| --- | --- | --- |
| CC[C@H](C)[C@@H]1NC(=O)[C@H](CCCCN)NC(=O)[C@@H](NC(=O)[C@H](CCCCN)NC(=O)[C@@H](NC(=O)[C@H](CC(N)=O)NC(=O)[C@@H](NC(=O)[C@@H](NC(=O)[C@@H](NC(=O)CN)C(C)C)[C@@H](C)CC)[C@@H](C)CC)C(C)C)CSSC[C@@H]2NC(=O)[C@H](Cc3cccc4ccccc34)NC(=O)CNC(=O)[C@H](Cc3ccccc3)NC(=O)[C@H](CCCNC(=N)N)NC(=O)[C@H](CCSC)NC(=O)CNC(=O)[C@H](C)NC(=O)[C@H](CCCCN)NC(=O)[C@H](CCCCN)NC(=O)[C@@H]3CSSC[C@@H](C(=O)N[C@H](C(=O)N4CCC[C@H]4C(=O)N[C@@H](CCCCN)C(=O)O)[C@@H](C)O)NC(=O)[C@H](Cc4c[nH]cn4)NC(=O)[C@H](CSSC[C@H](NC(=O)[C@H](CCC(N)=O)NC(=O)[C@H](CCCNC(=N)N)NC(=O)[C@H](CO)NC1=O)C(=O)N[C@@H](CC(C)C)C(=O)N[C@@H](CCC(=O)O)C(=O)N1CCC[C@H]1C(=O)N3)NC(=O)[C@H](CCCCN)NC(=O)CNC(=O)[C@H](CC(N)=O)NC(=O)[C@H](CCSC)NC2=O [K27Nal] (H-GVIINVKCKISRQCLEPCKKAGMRFG[1Nal]CMNGKCHCTPK-OH; disulfide 8-28, 14-33, 18-35) | 27 nM | 15 nM |
| CC[C@H](C)[C@@H]1NC(=O)[C@H](CCCCN)NC(=O)[C@@H](NC(=O)[C@H](CCCCN)NC(=O)[C@@H](NC(=O)[C@H](CC(N)=O)NC(=O)[C@@H](NC(=O)[C@@H](NC(=O)[C@@H](NC(=O)CN)C(C)C)[C@@H](C)CC)[C@@H](C)CC)C(C)C)CSSC[C@@H]2NC(=O)[C@H](CCCNC(=N)N)NC(=O)CNC(=O)[C@H](Cc3ccccc3)NC(=O)[C@H](CCCNC(=N)N)NC(=O)[C@H](CCSC)NC(=O)CNC(=O)[C@H](C)NC(=O)[C@H](CCCCN)NC(=O)[C@H](CCCCN)NC(=O)[C@@H]3CSSC[C@@H](C(=O)N[C@H](C(=O)N4CCC[C@H]4C(=O)N[C@@H](CCCCN)C(=O)O)[C@@H](C)O)NC(=O)[C@H](Cc4c[nH]cn4)NC(=O)[C@H](CSSC[C@H](NC(=O)[C@H](CCC(N)=O)NC(=O)[C@H](CCCNC(=N)N)NC(=O)[C@H](CO)NC1=O)C(=O)N[C@@H](CC(C)C)C(=O)N[C@@H](CCC(=O)O)C(=O)N1CCC[C@H]1C(=O)N3)NC(=O)[C@H](CCCCN)NC(=O)CNC(=O)[C@H](CC(N)=O)NC(=O)[C@H](CCSC)NC2=O [K27R] (H-GVIINVKCKISRQCLEPCKKAGMRFGRCMNGKCHCTPK-OH; disulfide 8-28, 14-33, 18-35) | 10.7 nM | 15.1 nM |
| CC[C@H](C)[C@@H]1NC(=O)[C@H](CCCCN)NC(=O)[C@@H](NC(=O)[C@H](CCCCN)NC(=O)[C@@H](NC(=O)[C@H](CC(N)=O)NC(=O)[C@@H](NC(=O)[C@@H](NC(=O)[C@@H](NC(=O)CN)C(C)C)[C@@H](C)CC)[C@@H](C)CC)C(C)C)CSSC[C@@H]2NC(=O)[C@H](CCCCN)NC(=O)CNC(=O)[C@H](Cc3ccccc3)NC(=O)[C@H](CCCNC(=N)N)NC(=O)[C@H](CCSC)NC(=O)CNC(=O)[C@H](C)NC(=O)[C@H](CCCCN)NC(=O)[C@H](CCCCN)NC(=O)[C@@H]3CSSC[C@@H](C(=O)N[C@H](C(=O)N4CCC[C@H]4C(=O)N[C@@H](CCCCN)C(=O)O)[C@@H](C)O)NC(=O)[C@H](Cc4c[nH]cn4)NC(=O)[C@H](CSSC[C@H](NC(=O)[C@H](CCC(N)=O)NC(=O)[C@H](CCCNC(=N)N)NC(=O)[C@H](CO)NC1=O)C(=O)N[C@@H](CC(C)C)C(=O)N[C@@H](CCC(=O)O)C(=O)N1CCC[C@H]1C(=O)N3)NC(=O)[C@H](CCC(=O)O)NC(=O)CNC(=O)[C@H](CC(N)=O)NC(=O)[C@H](CCSC)NC2=O [K32E] (H-GVIINVKCKISRQCLEPCKKAGMRFGKCMNGECHCTPK-OH; disulfide 8-28, 14-33, 18-35) | 0.063 nM | 0.062 nM |
| CC[C@H](C)[C@@H]1NC(=O)[C@H](CCCCN)NC(=O)[C@@H](NC(=O)[C@H](CCCCN)NC(=O)[C@@H](NC(=O)[C@H](CC(N)=O)NC(=O)[C@@H](NC(=O)[C@@H](NC(=O)[C@@H](NC(=O)CN)C(C)C)[C@@H](C)CC)[C@@H](C)CC)C(C)C)CSSC[C@@H]2NC(=O)[C@H](CCCCN)NC(=O)CNC(=O)[C@H](Cc3ccccc3)NC(=O)[C@H](CCCNC(=N)N)NC(=O)[C@H](CCSC)NC(=O)CNC(=O)[C@H](C)NC(=O)[C@H](CCCCN)NC(=O)[C@H](CCCCN)NC(=O)[C@@H]3CSSC[C@@H](C(=O)N[C@H](C(=O)N4CCC[C@H]4C(=O)N[C@@H](CCCCN)C(=O)O)[C@@H](C)O)NC(=O)[C@H](Cc4c[nH]cn4)NC(=O)[C@H](CSSC[C@H](NC(=O)[C@H](CCC(N)=O)NC(=O)[C@H](CCCNC(=N)N)NC(=O)[C@H](CO)NC1=O)C(=O)N[C@@H](CC(C)C)C(=O)N[C@@H](CCC(=O)O)C(=O)N1CCC[C@H]1C(=O)N3)NC(=O)[C@H](CCCNC(=N)N)NC(=O)CNC(=O)[C@H](CC(N)=O)NC(=O)[C@H](CCSC)NC2=O [K32R] (H-GVIINVKCKISRQCLEPCKKAGMRFGKCMNGRCHCTPK-OH; disulfide 8-28, 14-33, 18-35) | 0.034 nM | 0.028 nM |
| CC[C@H](C)[C@@H]1NC(=O)[C@H](CCCCN)NC(=O)[C@@H](NC(=O)[C@H](CCCCN)NC(=O)[C@@H](NC(=O)[C@H](CC(N)=O)NC(=O)[C@@H](NC(=O)[C@@H](NC(=O)[C@@H](NC(=O)CN)C(C)C)[C@@H](C)CC)[C@@H](C)CC)C(C)C)CSSC[C@@H]2NC(=O)[C@H](CCCCN)NC(=O)CNC(=O)[C@H](Cc3ccccc3)NC(=O)[C@H](CCCNC(=N)N)NC(=O)[C@H](CCSC)NC(=O)CNC(=O)[C@H](C)NC(=O)[C@H](CCCCN)NC(=O)[C@H](CCCCN)NC(=O)[C@@H]3CSSC[C@@H](C(=O)N[C@H](C(=O)N4CCC[C@H]4C(=O)N[C@@H](CCC(=O)O)C(=O)O)[C@@H](C)O)NC(=O)[C@H](Cc4c[nH]cn4)NC(=O)[C@H](CSSC[C@H](NC(=O)[C@H](CCC(N)=O)NC(=O)[C@H](CCCNC(=N)N)NC(=O)[C@H](CO)NC1=O)C(=O)N[C@@H](CC(C)C)C(=O)N[C@@H](CCC(=O)O)C(=O)N1CCC[C@H]1C(=O)N3)NC(=O)[C@H](CCCCN)NC(=O)CNC(=O)[C@H](CC(N)=O)NC(=O)[C@H](CCSC)NC2=O [K38E] (H-GVIINVKCKISRQCLEPCKKAGMRFGKCMNGKCHCTPE-OH; disulfide 8-28, 14-33, 18-35) | 0.713 nM | 0.526 nM |
| CC[C@H](C)[C@@H]1NC(=O)[C@H](CCCCN)NC(=O)[C@@H](NC(=O)[C@H](CCCCN)NC(=O)[C@@H](NC(=O)[C@H](CC(N)=O)NC(=O)[C@@H](NC(=O)[C@@H](NC(=O)[C@@H](NC(=O)CN)C(C)C)[C@@H](C)CC)[C@@H](C)CC)C(C)C)CSSC[C@@H]2NC(=O)[C@H](CCCCN)NC(=O)CNC(=O)[C@H](Cc3ccccc3)NC(=O)[C@H](CCCNC(=N)N)NC(=O)[C@H](CCSC)NC(=O)CNC(=O)[C@H](C)NC(=O)[C@H](CCCCN)NC(=O)[C@H](CCCCN)NC(=O)[C@@H]3CSSC[C@@H](C(=O)N[C@H](C(=O)N4CCC[C@H]4C(=O)N[C@@H](CCCNC(=N)N)C(=O)O)[C@@H](C)O)NC(=O)[C@H](Cc4c[nH]cn4)NC(=O)[C@H](CSSC[C@H](NC(=O)[C@H](CCC(N)=O)NC(=O)[C@H](CCCNC(=N)N)NC(=O)[C@H](CO)NC1=O)C(=O)N[C@@H](CC(C)C)C(=O)N[C@@H](CCC(=O)O)C(=O)N1CCC[C@H]1C(=O)N3)NC(=O)[C@H](CCCCN)NC(=O)CNC(=O)[C@H](CC(N)=O)NC(=O)[C@H](CCSC)NC2=O [K38R] (H-GVIINVKCKISRQCLEPCKKAGMRFGKCMNGKCHCTPR-OH; disulfide 8-28, 14-33, 18-35) | 0.04 nM | 0.039 nM |
| CC[C@H](C)[C@@H]1NC(=O)[C@H](CCCCN)NC(=O)[C@@H](NC(=O)[C@H](CCCCN)NC(=O)[C@@H](NC(=O)[C@H](CC(N)=O)NC(=O)[C@@H](NC(=O)[C@@H](NC(=O)[C@@H](NC(=O)CN)C(C)C)[C@@H](C)CC)[C@@H](C)CC)C(C)C)CSSC[C@@H]2NC(=O)[C@H](CCCCN)NC(=O)CNC(=O)[C@H](Cc3ccccc3)NC(=O)[C@H](CCCNC(=N)N)NC(=O)[C@H](CCSC)NC(=O)CNC(=O)[C@H](C)NC(=O)[C@H](CCCCN)NC(=O)[C@H](CCCCN)NC(=O)[C@@H]3CSSC[C@@H](C(=O)N[C@H](C(=O)N4CCC[C@H]4C(=O)N[C@@H](CCCCN)C(=O)O)[C@@H](C)O)NC(=O)[C@H](Cc4c[nH]cn4)NC(=O)[C@H](CSSC[C@H](NC(=O)[C@H](CCC(N)=O)NC(=O)[C@H](CCCNC(=N)N)NC(=O)[C@H](CO)NC1=O)C(=O)N[C@@H](C)C(=O)N[C@@H](CCC(=O)O)C(=O)N1CCC[C@H]1C(=O)N3)NC(=O)[C@H](CCCCN)NC(=O)CNC(=O)[C@H](CC(N)=O)NC(=O)[C@H](CCSC)NC2=O [L15A] (H-GVIINVKCKISRQCAEPCKKAGMRFGKCMNGKCHCTPK-OH; disulfide 8-28, 14-33, 18-35) | 0.107 nM | 0.107 nM |
| CC[C@H](C)[C@@H]1NC(=O)[C@H](CCCCN)NC(=O)[C@@H](NC(=O)[C@H](CCCCN)NC(=O)[C@@H](NC(=O)[C@H](CC(N)=O)NC(=O)[C@@H](NC(=O)[C@@H](NC(=O)[C@@H](NC(=O)CN)C(C)C)[C@@H](C)CC)[C@@H](C)CC)C(C)C)CSSC[C@@H]2NC(=O)[C@H](CCCCN)NC(=O)CNC(=O)[C@H](Cc3ccccc3)NC(=O)[C@H](CCCNC(=N)N)NC(=O)[C@H](CCSC)NC(=O)CNC(=O)[C@H](C)NC(=O)[C@H](CCCCN)NC(=O)[C@H](CCCCN)NC(=O)[C@@H]3CSSC[C@@H](C(=O)N[C@H](C(=O)N4CCC[C@H]4C(=O)N[C@@H](CCCCN)C(=O)O)[C@@H](C)O)NC(=O)[C@H](Cc4c[nH]cn4)NC(=O)[C@H](CSSC[C@H](NC(=O)[C@H](CCC(N)=O)NC(=O)[C@H](CCCNC(=N)N)NC(=O)[C@H](CO)NC1=O)C(=O)N[C@@H](Cc1cccc4ccccc14)C(=O)N[C@@H](CCC(=O)O)C(=O)N1CCC[C@H]1C(=O)N3)NC(=O)[C@H](CCCCN)NC(=O)CNC(=O)[C@H](CC(N)=O)NC(=O)[C@H](CCSC)NC2=O [L15Nal] (H-GVIINVKCKISRQC[1Nal]EPCKKAGMRFGKCMNGKCHCTPK-OH; disulfide 8-28, 14-33, 18-35) | 0.37 nM | 0.358 nM |
